Measurements taken from PubChem BioAssay (NCI).
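Exposure lasted 48 hours, with cells grown in 96-well plates and compounds tested at five concentrations. GI50 marks 50% less growth. TGI: total growth inhibition.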

Legend:
Assay in all cases: growth of human tumour cells (NCI), 48 h
SK-OV-3 ovarian = tested on: SK-OV-3 ovarian
HOP-92 NSCLC = tested on: HOP-92 NSCLC
CCRF-CEM leukemia = tested on: CCRF-CEM leukemia
ACHN renal = tested on: ACHN renal
LOX IMVI melanoma = tested on: LOX IMVI melanoma
U251 CNS = tested on: U251 CNS
EKVX NSCLC = tested on: EKVX NSCLC
TK-10 renal = tested on: TK-10 renal
UO-31 renal = tested on: UO-31 renal
HCC-2998 colon = tested on: HCC-2998 colon

SMILES	TGI (SK-OV-3 ovarian) [µM]	TGI (HOP-92 NSCLC) [µM]	TGI (CCRF-CEM leukemia) [µM]	TGI (ACHN renal) [µM]	TGI (LOX IMVI melanoma) [µM]	TGI (U251 CNS) [µM]	TGI (EKVX NSCLC) [µM]	TGI (TK-10 renal) [µM]	GI50 (SK-OV-3 ovarian) [µM]	GI50 (HOP-92 NSCLC) [µM]	GI50 (ACHN renal) [µM]	GI50 (LOX IMVI melanoma) [µM]	GI50 (U251 CNS) [µM]	GI50 (UO-31 renal) [µM]	TGI (UO-31 renal) [µM]	GI50 (HCC-2998 colon) [µM]	TGI (HCC-2998 colon) [µM]	GI50 (EKVX NSCLC) [µM]	GI50 (TK-10 renal) [µM]	GI50 (CCRF-CEM leukemia) [µM]
O=C(O)c1cscc1Cc1cccs1	> 100	> 100	> 100	> 100	> 100	> 100	> 100	> 100												
CN1CCN(c2ccc(NC3=C(Cl)C(=O)c4ncccc4C3=O)cc2C#N)CC1	27.5	3.45		2.36	3.19	4.44	8.72	4.24	13.8	1.82	1.15	1.51	2.01	1.34	2.61	2.34	7.03	2.78	2.09	
c1cc(-c2cn[nH]c2)cc(-c2cn[nH]c2)c1	37.5	> 100	> 100		> 100	> 100	58.6	> 100							58.4		> 100			
NC(=S)N/N=C\c1nccc2c(N)cccc12	> 100	> 100					> 100	> 100	0.541	0.233	0.0977	0.292	0.237	0.298	1.24	0.374	> 100	0.803	0.961	
Cc1cc(C)c2c(SCc3ccc(Cl)cc3Cl)nc(N)nc2n1	> 100	58.1	> 100	> 100	> 100	> 100	> 100	47.5							70.7					
COc1ccc(C(=O)C(C(=O)C(=O)Nc2nccs2)c2ccc(OC)cc2)cc1 (stereo not drawn)	> 100	> 100	> 100	> 100	> 100	> 100		> 100							> 100					
Cc1cccc2c1O/C(=C\c1ccc([N+](=O)[O-])o1)C2=O	8.28	2.95	1.05	1.44	2.69	2.89		5.61	2.57	1.16	0.367	1.23	1.44	1.09	2.49	1.34	3.91		2.3	0.285
CCCCN(CCCC)C(=O)C(=O)C(C)C(=O)CC (stereo not drawn)	> 100	> 100		> 100	> 100	> 100		> 100							> 100		> 100			
CC1CCP(=O)(c2ccccc2)CC1 (stereo not drawn)	> 100		> 100	> 100	> 100	> 100	> 100	> 100							> 100		> 100			
O=S(=O)(O)/C(=C\c1ccccc1)c1ccccc1 (tested in a mixture with another compound)	> 100	> 100	> 100	> 100	> 100	> 100	> 100	> 100							> 100					
COc1ccc(/C=C(/C)[N+](=O)[O-])cc1	17.9	5.66	4.48	3.97		3.05	4.91	3.64							3.15		3.43			
C#C[C@H](CCCC)OC(=O)N[C@H](C)c1ccccc1	> 100	> 100	> 100	> 100	87.8	> 100	> 100	> 100							75.8					
C1=C(c2ccccc2)SC=C(c2ccccc2)S1	> 100	> 100	> 100	> 100	> 100	> 100	> 100	> 100							> 100					
COc1cc(C2=NN(c3ccc(S(N)(=O)=O)cc3)C(c3ccc(Cl)cc3)C2)cc(OC)c1OC (stereo not drawn)	> 100	14.5	> 100	9.27	> 100	> 100		> 100	6.91	2.02	2.62	5.15	3.84	2.5	> 100	6.93	> 100		3.27	4.81
C/C1=C\C/C=C(\C)[C@H]2CC(CC/C(C)=C/CC1)[C@](C)(C=O)O2	> 100	> 100		> 100	48.5	> 100	> 100	> 100	> 100	39.8	> 100	22.2	43.9	> 100	> 100	49.8	> 100	> 100	> 100	
CO[C@@]12C[C@H]3[C@@H]([C@@H](O)[C@@H](OC(=O)/C=C/c4ccccc4)[C@@]4(O)C(C)(C)CCC[C@]34C)[C@@H](C)C1=CC(=O)O2				17.8	15.6	13.7	57.5	> 100			4.16	4.14	3.29	16.6	> 100			5.36	6.15	
OCC#Cc1ccccc1C#Cc1ccc(C#Cc2ccccc2C#CCO)s1	34.4	29.7		43.3	53.6	42.3	43.1	30.6	15.9	15.6	19.1	20.4	20.1	18.1	36	14.7	28.8	19.9	16.7	
O=C(O)/C(=C\c1ccccc1Cl)S(=O)(=O)c1ccccc1	> 100	> 100	> 100	> 100	> 100	> 100		> 100							> 100		> 100			
